Measurements reported in patent publication US20240140958A1, “FUSED QUADRACYCLIC COMPOUNDS, COMPOSITIONS AND USES THEREOF” (Tabomedex Biosciences, Inc., priority 2021, published 2024).

Assays:
[1] = target: T1, MAPKAPK2 Recombinant Human Protein (Homo sapiens, UniProt P49137); test: MK2 kinase assay (Z'-LYTE kinase assay kit); details: inhibition of MK2 biochemical activity; 90 min incubation at room temperature
T1 construct: purchased ThermoFisher pv3317
Summary of the method: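 Z'-LYTE FRET assay with recombinant human MAPKAPK2 and peptide substrate; compound and ATP added, kinase reaction 90 min at room temperature, then development 60 min before stop. Coumarin (445 nm) and fluorescein (520 nm) emissions read at 400 nm excitation.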

THP-1 cells = test: THP-1 cell assay: LPS-stimulated pSer78-Hsp27 ELISA; format: cell-based; details: Homo sapiens, PMA-differentiated THP-1 cells, compound 60 min before 20 ng/mL LPS for 30 min
Description: Materials and Reagents for Measuring Activity in THP-1 Cells: • 1) THP-1 cells (Cell bank of Shanghai) • 2) PMA (Sigma, Cat.No. P1585) • 3) LPS (Sigma, Cat.No. L4516) • 4) 96-well tissue-culture treated plate (Grenier, Cat.No. 655180) • 5) FBS (Thermofisher, Cat.No. 10100147) • 6) Complete EDTA-free protease inhibitor Cocktail (Roche, Cat.No. 4693132001) • 7) PhosSTOP (Roche, Cat.No. 4906845001) • 8) Phosphor-Hsp27 (Ser78) Sandwich Elisa kit (CST, Cat.No. 7295)
Cell Assay Procedure: • 1) Day 0: THP-1 cells are seeded at 50K/well in complete media (1640+10% FBS+50 μM β-ME)+20 ng/mL PMA in 96-well plate • 2) Day 1: PMA containing media is removed after 24 h incubation (37° C./5% CO2), and replaced with complete growth media. Cells are incubated an additional 48 h to recover. • 3) Day 3: Cells are incubated with or without compounds at indicated concentrations for 60 min, prior to addition of 20 ng/mL LPS. Cells are stimulated for 30 min with LPS, washed 1× with ice cold PBS, lysed on ice in Lysis buffer provided in ELISA kit with Roche protease & phosphatase inhibitors. Extracts are clarified by refrigerated centrifugation & stored at −80° C. until pHsp27/total Hsp27 ELISAs • 4) Day 3 or Day 4: Cell Signaling Technology ELISA is run for pSer78-Hsp27 on lysates diluted to approximately 2.5 μg/well. • 5) The absorbance at 450 nm was read in a SpectraMax plus plate reader (Molecular Devices). Data was processed using GraphPad prism 8.0.

T1 sequence (P49137 whole entry): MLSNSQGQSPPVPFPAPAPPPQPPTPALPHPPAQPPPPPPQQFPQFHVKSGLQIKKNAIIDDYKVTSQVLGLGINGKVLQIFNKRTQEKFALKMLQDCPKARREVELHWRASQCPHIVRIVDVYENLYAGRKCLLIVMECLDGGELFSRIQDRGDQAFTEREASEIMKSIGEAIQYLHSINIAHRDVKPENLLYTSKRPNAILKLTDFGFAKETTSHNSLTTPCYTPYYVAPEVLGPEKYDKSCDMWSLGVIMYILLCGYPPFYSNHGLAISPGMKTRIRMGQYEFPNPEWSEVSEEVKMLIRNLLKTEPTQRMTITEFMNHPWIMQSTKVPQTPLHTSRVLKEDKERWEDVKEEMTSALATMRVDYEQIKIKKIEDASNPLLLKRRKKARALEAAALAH

Row | SMILES | IC50 [1] | IC50 (THP-1 cells)
1 | CN(CCO)CC1CCN(c2ccc3c(c2)Cn2cc(-c4ccc(C#N)cc4)cc2-c2nccn2-3)C1=O (stereo not shown) [Example 37] | 50 to 100 nM | 50 to 100 nM
2 | N#Cc1ccc(-c2cc3n(c2)Cc2cc(N4C[C@@H](CN5CCC5)CC4=O)ccc2-n2ccnc2-3)cc1 [Example 27] | < 50 nM | < 50 nM
3 | CN(C)C[C@@H]1CCN(c2ccc3c(c2)Cn2cc(-c4ccc(C#N)cc4)cc2-c2nccn2-3)C1=O (single isomer, unassigned) [Example 36] | < 50 nM | < 50 nM
4 | CN(C)C[C@H]1CC(=O)N(c2ccc3c(c2)Cn2cc(-c4ccc(C#N)cc4)cc2-c2nccn2-3)C1 [Example 7, (R)-4-(7-(4-((Dimethylamino)methyl)-2-oxopyrrolidin-1-yl)-9H-benzo[e]imidazo[2,1-c]pyrrolo[1,2-a][1,4]diazepin-12-yl)benzonitrile] | < 50 nM | < 50 nM
5 | N#Cc1ccc(-c2cc3n(c2)Cc2cc(N4C[C@@H](CN5CCC(F)C5)CC4=O)ccc2-n2ccnc2-3)cc1 (stereo partly drawn) [Example 26, 4-(7-((4R)-4-((3-Fluoropyrrolidin-1-yl)methyl)-2-oxopyrrolidin-1-yl)-9H-benzo[e]imidazo[2,1-c]pyrrolo[1,2-a][1,4]diazepin-12-yl)benzonitrile] | 50 to 100 nM | 100 to 200 nM
6 | N#Cc1ccc(-c2cc3n(c2)Cc2cc(N4CC5(CNC5)CC4=O)ccc2-n2ccnc2-3)cc1 [Example 22, 4-(7-(7-Oxo-2,6-diazaspiro[3.4]octan-6-yl)-9H-benzo[e]imidazo[2,1-c]pyrrolo [1,2-a][1,4]diazepin-12-yl)benzonitrile] | < 50 nM | 1000 to 1500 nM
7 | N#Cc1ccc(-c2cc3n(c2)Cc2cc(N4C[C@@H](CNC5CC5)CC4=O)ccc2-n2ccnc2-3)cc1 [Example 15] | < 50 nM | < 50 nM
8 | CN(C)[C@H]1CCN(c2ccc3c(c2)Cn2cc(-c4ccc(C#N)cc4)cc2-c2nccn2-3)C1=O [Example 25, (S)-4-(7-(3-(Dimethylamino)-2-oxopyrrolidin-1-yl)-9H-benzo[e]imidazo [2,1-c]pyrrolo[1,2-a][1,4]diazepin-12-yl)benzonitrile] | 50 to 100 nM | 300 to 400 nM
9 | CC(C)(N)[C@@H]1CN(c2ccc3c(c2)Cn2cc(-c4ccc(C#N)cc4)cc2-c2nccn2-3)C(=O)O1 (single isomer, unassigned) [Example 21] | < 50 nM | < 50 nM
10 | CN(C)CC[C@@H]1CCN(c2ccc3c(c2)Cn2cc(-c4ccc(C#N)cc4)cc2-c2nccn2-3)C1=O (single isomer, unassigned) [Example 42] | < 50 nM | < 50 nM
11 | CNC[C@@H]1CN(c2ccc3c(c2)Cn2cc(-c4ccc(C#N)cc4)cc2-c2nccn2-3)C(=O)O1 [Example 3] | < 50 nM | < 50 nM

Second part, the compound after the results:

Row | IC50 [1] | IC50 (THP-1 cells) | SMILES
12 | < 50 nM | 100 to 200 nM | CN(C)CC1CC12CCN(c1ccc3c(c1)Cn1cc(-c4ccc(C#N)cc4)cc1-c1nccn1-3)C2=O (stereo not shown) [Example 47, 4-(7-(1-((Dimethylamino)methyl)-4-oxo-5-azaspiro[2.4]heptan-5-yl)-9H-benzo[e]imidazo[2,1-c]pyrrolo[1,2-a][1,4]diazepin-12-yl)benzonitrile]
13 | < 50 nM | < 50 nM | CN(C)C[C@@H]1CCN1C(=O)c1ccc2c(c1)Cn1cc(-c3ccc(C#N)cc3)cc1-c1nccn1-2 [Example 116]
14 | < 50 nM | 300 to 400 nM | CC(C)(N)C[C@H]1CCN(c2ccc3c(c2)Cn2cc(-c4ccc(C#N)cc4)cc2-c2nccn2-3)C1=O [Example 43, (R)-4-(7-(3-(2-Amino-2-methylpropyl)-2-oxopyrrolidin-1-yl)-9H-benzo[e]imidazo[2,1-c]pyrrolo[1,2-a][1,4]diazepin-12-yl)benzonitrile]
15 | < 50 nM | < 50 nM | CN1CC(N2CCN(c3ccc4c(c3)Cn3cc(-c5ccc(C#N)cc5)cc3-c3nccn3-4)C2=O)C1 [Example 58, 4-(7-(3-(1-Methylazetidin-3-yl)-2-oxoimidazolidin-1-yl)-9H-benzo[e]imidazo[2,1-c]pyrrolo[1,2-a][1,4]diazepin-12-yl)benzonitrile]
16 | < 50 nM | 100 to 200 nM | CN(C)C[C@H]1CC(=O)N(c2ccc3c(c2)Cn2cc(-c4ccc(C#N)cc4)cc2-c2ncnn2-3)C1 [Example 87, (R)-4-(7-(4-((Dimethylamino)methyl)-2-oxopyrrolidin-1-yl)-9H-benzo[e]pyrrolo [1,2-a][1,2,4]triazolo[5,1-c][1,4]diazepin-12-yl)benzonitrile]
17 | < 50 nM | < 50 nM | CN1CC(C)(CN2C(=O)CN(c3ccc4c(c3)Cn3cc(-c5ccc(C#N)cc5)cc3-c3nccn3-4)C2=O)C1 [Example 65, 4-(7-(3-((1,3-Dimethylazetidin-3-yl)methyl)-2,4-dioxoimidazolidin-1-yl)-9H-benzo[e]imidazo[2,1-c]pyrrolo[1,2-a][1,4]diazepin-12-yl)benzonitrile]
18 | < 50 nM | 50 to 100 nM | N#Cc1ccc(-c2cc3n(c2)Cc2cc(C(=O)N4CC(C#N)C4)ccc2-n2ccnc2-3)cc1 [Example 110]
19 | < 50 nM | 300 to 400 nM | [2H]C([2H])([2H])N(CC1CCN(c2ccc3c(c2)Cn2cc(-c4ccc(C#N)cc4)cc2-c2nnc(C)n2-3)C1=O)C([2H])([2H])[2H] (stereo not shown) [Example 86, 4-(7-(3-((Bis(methyl-d3)amino)methyl)-2-oxopyrrolidin-1-yl)-3-methyl-9H-benzo [e]pyrrolo[1,2-a][1,2,4]triazolo[3,4-c][1,4]diazepin-12-yl)benzonitrile]
20 | 50 to 100 nM | 200 to 300 nM | CN(C)C[C@@H]1CN(c2ccc3c(c2)Cn2cc(-c4ccc(C#N)cc4)cc2-c2nccn2-3)C(=O)N1C [Example 56, (R)-4-(7-(4-((Dimethylamino)methyl)-3-methyl-2-oxoimidazolidin-1-yl)-9H-benzo[e]imidazo[2,1-c]pyrrolo[1,2-a][1,4]diazepin-12-yl)benzonitrile]
21 | < 50 nM | 500 to 1000 nM | CC(C)N1CC(NC(=O)c2ccc3c(c2)Cn2cc(-c4ccc(C#N)cc4)cc2-c2nccn2-3)C1 [Example 128]
22 | 50 to 100 nM | 200 to 300 nM | CN(C)C[C@H]1C[C@@]12CCN(c1ccc3c(c1)Cn1cc(-c4ccc(C#N)cc4)cc1-c1nccn1-3)C2=O [Example 48, 4-(7-((1S,3R)-1-((dimethylamino)methyl)-4-oxo-5-azaspiro[2.4]heptan-5-yl)-9H-benzo[e]imidazo[2,1-c]pyrrolo[1,2-a][1,4]diazepin-12-yl)benzonitrile]
23 | < 50 nM | 500 to 1000 nM | CN1CC(NC(=O)c2ccc3c(c2)Cn2cc(-c4ccc(C#N)cc4)cc2-c2nccn2-3)C1 [Example 119, 2-(4-Cyanophenyl)-N-(1-methylazetidin-3-yl)-9H-benzo[e]imidazo[2,1-c]pyrrolo [1,2-a][1,4]diazepine-7-carboxamide]
